From patent publication US20240228488A1 (TAKEDA PHARMACEUTICAL COMPANY LIMITED, priority 2021, published 2024)

How the values were obtained:
[1] = target: human activated kallikrein enzyme (Homo sapiens, UniProt P03952); test: Plasma kallikrein inhibition, fluorogenic PFR-AMC substrate, 500 pM activated kallikrein format; type: biochemical; conditions: 500 pM activated kallikrein, 300 uM PFR-AMC, 30 min preincubation, 10 min reaction; read-out: Primary Dose Response Assay: Average EC50
Procedure, shortened: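 Enzyme at 500 pM preincubated 30 min RT with inhibitors in 20 mM Tris pH 7.5, 1 mM EDTA, 150 mM NaCl, 0.1% PEG-400, 0.1% Triton X-100. Reaction started with 300 uM PFR-AMC, run 10 min RT; fluorescence read at 460 nm emission, 380 nm excitation. EC50 reported in ranges.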

[2] = target: T1, plasma kallikrein (Homo sapiens, UniProt P03952); test: Neat human plasma assay, FXIIa contact pathway-activated, PFR-AMC substrate; type: biochemical; conditions: citrated human plasma 78% final, 10 nM human FXIIa, 100 μM PFR-AMC; read-out: Human Plasma Assay: IC90
T1 construct: from tissue
Experimental: To analyze inhibition of plasma kallikrein in an ex vivo setting, the potency of compounds was measure in contact pathway-activated plasma assays. In a fluorogenic peptide substrate assay, test compounds dissolved in DMSO were added to sodium citrate collected human or rat plasma in a 96-well microplate. Alternatively, citrated plasma was collected from rats administered the compounds orally or by IV. 10 nM of human FXIIa (Enzyme Research Laboratories) diluted in pKal buffer (20 mM Tris-HCl, pH 7.5, 150 mM NaCl, 1 mM EDTA, 0.1% PEG-8000, and 0.1% Triton X-100) was added to the plasma, followed by the 100 μM of the profluorescent, synthetic plasma kallikrein substrate PFR-AMC (also diluted in pKal buffer). Final plasma concentration in the reaction was 78%. Fluorescence was immediately monitored by excitation/emission wavelengths of 360 nm/480 nm respectively over a period of 5 minutes in a microplate reader. The resulting linear increase in fluorescence emission (reflecting pKal proteolysis of PFR-AMC substrate) was fit to extract a proteolytic rate (fluorescent units over time), and this rate was subsequently plotted against compound inhibitor concentration. Resulting plots were fit to a standard 4-parameter IC50/IC90 equation to determine min/max values, IC50/90, and slope. All experimental steps were performed at room temperature. Table 50 provides results of the assay.

Sequence of human activated kallikrein enzyme (P03952 391-638 limits assumed): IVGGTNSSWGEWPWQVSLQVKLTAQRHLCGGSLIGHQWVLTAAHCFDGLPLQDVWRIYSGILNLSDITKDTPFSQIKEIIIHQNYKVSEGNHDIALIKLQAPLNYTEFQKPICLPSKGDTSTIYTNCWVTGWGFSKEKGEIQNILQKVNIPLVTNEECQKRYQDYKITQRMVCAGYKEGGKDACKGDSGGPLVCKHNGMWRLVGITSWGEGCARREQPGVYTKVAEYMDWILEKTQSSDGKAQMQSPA
Sequence of human activated kallikrein enzyme (P03952 20-390 partner limits assumed): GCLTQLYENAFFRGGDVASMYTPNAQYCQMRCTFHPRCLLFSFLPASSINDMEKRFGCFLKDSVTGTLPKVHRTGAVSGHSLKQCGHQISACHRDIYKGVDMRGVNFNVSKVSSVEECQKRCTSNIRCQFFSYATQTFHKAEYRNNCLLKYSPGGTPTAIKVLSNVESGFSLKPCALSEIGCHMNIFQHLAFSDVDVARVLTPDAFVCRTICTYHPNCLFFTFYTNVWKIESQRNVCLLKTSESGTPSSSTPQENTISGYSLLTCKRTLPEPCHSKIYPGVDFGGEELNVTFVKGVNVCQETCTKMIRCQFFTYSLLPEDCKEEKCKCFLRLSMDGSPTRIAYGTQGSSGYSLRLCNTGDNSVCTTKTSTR
T1 sequence (P03952 391-638 limits assumed): as the sequence (P03952 391-638 limits assumed) above
T1 sequence (P03952 20-390 partner limits assumed): as the sequence (P03952 20-390 partner limits assumed) above

SMILES	EC50 [1]	IC90 [2]
Cc1ccnc([C@H]2C[C@@H]2C(=O)Nc2cc(N[C@H](C)c3cn4cc(C5CC5)cc(N5CCOC5=O)c4n3)ncn2)n1 [Example 534, (1S,2S)-N-(6-(((R)-1-(6-cyclopropyl-8-(2-oxooxazolidin-3-yl)imidazo[1,2-a]pyridin-2-yl)ethyl)amino)pyrimidin-4-yl)-2-(4-methylpyrimidin-2-yl)cyclopropane-1-carboxamide]	< 1 nM	< 400 nM
CN1CN(c2cc(C3CC3)cn3cc(CNc4cc(NC(=O)[C@H]5C[C@@H]5c5cccc(Cl)c5)ncn4)nc23)CC1=O [Example I-9, (1S,2S)-2-(3-chlorophenyl)-N-(6-(((6-cyclopropyl-8-(3-methyl-4-oxoimidazolidin-1-yl)imidazo[1,2-a]pyridin-2-yl)methyl)amino)pyrimidin-4-yl)cyclopropane-1-carboxamide]	1 to 10 nM	1500 to 10000 nM
O=C(Nc1cc(N2C[C@@H](O)C[C@@H]2c2cn3cc(C4CC4)ccc3n2)ccn1)[C@H]1C[C@@H]1c1cccc(Cl)c1 [Example 282, (1S,2S)-2-(3-chlorophenyl)-N-(4-((2R,4S)-2-(6-cyclopropylimidazo[1,2-a]pyridin-2-yl)-4-hydroxypyrrolidin-1-yl)pyridin-2-yl)cyclopropane-1-carboxamide]	1 to 10 nM	1500 to 10000 nM
CNCc1cc(C2CC2)cn2cc(CNc3ccnc(NC(=O)[C@H]4C[C@@H]4c4cccc(Cl)c4)c3)nc12 [Example 595, (1S,2S)-2-(3-chlorophenyl)-N-(4-(((6-cyclopropyl-8-((methylamino)methyl)imidazo[1,2-a]pyridin-2-yl)methyl)amino)pyridin-2-yl)cyclopropane-1-carboxamide]	< 1 nM	< 400 nM
Cc1ccnc([C@H]2C[C@@H]2C(=O)Nc2cc(OCc3cn4cc(C5CC5)cc(N5CC(=O)N(CCN(C)C)C5=O)c4n3)nc(C)n2)n1 [Example 564, (1S,2S)-N-(6-((6-cyclopropyl-8-(3-(2-(dimethylamino)ethyl)-2,4-dioxoimidazolidin-1-yl)imidazo[1,2-a]pyridin-2-yl)methoxy)-2-methylpyrimidin-4-yl)-2-(4-methylpyrimidin-2-yl)cyclopropane-1-carboxamide]	< 1 nM	< 400 nM
CS(=O)(=O)c1cc(C2CC2)cn2cc(CNc3cc(NC(=O)[C@H]4C[C@@H]4c4cccc(Cl)c4)ncn3)nc12 (racemic) [Example 60, rac-(1S*,2S*)-2-(3-chlorophenyl)-N-(6-(((6-cyclopropyl-8-(methylsulfonyl)imidazo[1,2-α]pyridin-2-yl)methyl)amino)pyrimidin-4-yl)cyclopropane-1-carboxamide]	1 to 10 nM	10000 to 48000 nM
CN(C)C1CCN(c2cc(C3CC3)cn3cc(CNc4ccnc(NC(=O)[C@H]5C[C@@H]5c5cccc(Cl)c5)c4)nc23)C1 (stereo partly drawn) [Example I-25, (1S,2S)-2-(3-chlorophenyl)-N-(4-(((6-cyclopropyl-8-(3-(dimethylamino)pyrrolidin-1-yl)imidazo[1,2-a]pyridin-2-yl)methyl)amino)pyridin-2-yl)cyclopropane-1-carboxamide]	< 1 nM	400 to 1500 nM
CN1CC(O)(c2cc(C3CC3)cn3cc(CNc4ccnc(NC(=O)[C@H]5C[C@@H]5c5cccc(Cl)c5)c4)nc23)C1 [Example 608, (1S,2S)-2-(3-chlorophenyl)-N-(4-(((6-cyclopropyl-8-(3-hydroxy-1-methylazetidin-3-yl)imidazo[1,2-a]pyridin-2-yl)methyl)amino)pyridin-2-yl)cyclopropane-1-carboxamide]	< 1 nM	< 400 nM
Cc1ccnc([C@H]2C[C@@H]2C(=O)Nc2cc(NCc3cn4cc(C5CC5)cc(N5CCCC5=O)c4n3)ncn2)n1 (racemic) [Example 389, rac-(1S*,2S*)-N-(6-(((6-cyclopropyl-8-(2-oxopyrrolidin-1-yl)imidazo[1,2-a]pyridin-2-yl)methyl)amino)pyrimidin-4-yl)-2-(4-methylpyrimidin-2-yl)cyclopropane-1-carboxamide]	< 1 nM	400 to 1500 nM
Cc1ccnc([C@H]2C[C@@H]2C(=O)Nc2cc(N(C)Cc3cn4cc(C5CC5)cc(N5CC(=O)N(CC(C)(C)O)C5=O)c4n3)nc(C)n2)n1 [Example 359, (1S,2S)-N-(6-(((6-cyclopropyl-8-(3-(2-hydroxy-2-methylpropyl)-2,4-dioxoimidazolidin-1-yl)imidazo[1,2-a]pyridin-2-yl)methyl)(methyl)amino)-2-methylpyrimidin-4-yl)-2-(4-methylpyrimidin-2-yl)cyclopropane-1-carboxamide]	< 1 nM	400 to 1500 nM
Cc1ccnc([C@H]2C[C@@H]2C(=O)Nc2cc(N(C)Cc3cn4cc(C5CC5)cc(S(C)(=O)=O)c4n3)nc(C)n2)n1 [Example I-161, (1S,2S)-N-(6-(((6-cyclopropyl-8-(methylsulfonyl)imidazo[1,2-a]pyridin-2-yl)methyl)(methyl)amino)-2-methylpyrimidin-4-yl)-2-(4-methylpyrimidin-2-yl)cyclopropane-1-carboxamide]	< 1 nM	1500 to 10000 nM
CN1CCC(F)(c2cc(C3CC3)cn3cc(CNc4ccnc(NC(=O)[C@H]5C[C@@H]5c5cccc(Cl)c5)c4)nc23)CC1 [Example I-229, (1S,2S)-2-(3-chlorophenyl)-N-(4-(((6-cyclopropyl-8-(4-fluoro-1-methylpiperidin-4-yl)imidazo[1,2-a]pyridin-2-yl)methyl)amino)pyridin-2-yl)cyclopropane-1-carboxamide]	< 1 nM	< 400 nM
O=C(Nc1cc(NCc2cn3cc(C4CC4)cc(N4CC(=O)N(C5CC5)C4=O)c3n2)ccn1)[C@H]1C[C@@H]1c1cccc(Cl)c1 [Example 513, (1S,2S)-2-(3-chlorophenyl)-N-(4-(((6-cyclopropyl-8-(3-cyclopropyl-2,4-dioxoimidazolidin-1-yl)imidazo[1,2-a]pyridin-2-yl)methyl)amino)pyridin-2-yl)cyclopropane-1-carboxamide]	< 1 nM	1500 to 10000 nM
Cc1cc(NCc2cn3cc(C4CC4)ccc3n2)cc(NC(=O)[C@H]2C[C@@H]2c2cccc(Cl)c2)n1 [Example 338, (1S,2S)-2-(3-chlorophenyl)-N-(4-(((6-cyclopropylimidazo[1,2-a]pyridin-2-yl)methyl)amino)-6-methylpyridin-2-yl)cyclopropane-1-carboxamide]	< 1 nM	1500 to 10000 nM
Cc1nc([C@H]2C[C@@H]2C(=O)Nc2cc(NCc3cn4cc(C5CC5)cc(N5CC(=O)N(C)C5=O)c4n3)ncn2)ncc1F (racemic) [Example 489, rac-(1S*,2S*)—N-(6-(((6-cyclopropyl-8-(3-methyl-2,4-dioxoimidazolidin-1-yl)imidazo[1,2-a]pyridin-2-yl)methyl)amino)pyrimidin-4-yl)-2-(5-fluoro-4-methylpyrimidin-2-yl)cyclopropane-1-carboxamide]	< 1 nM	400 to 1500 nM
O=C(Nc1cc(NCc2cn3cc(C4CC4)cc(N4CC5CC5C4=O)c3n2)ccn1)[C@H]1C[C@@H]1c1cccc(Cl)c1 (stereo partly drawn) [Example 95, (S,2S)-2-(3-chlorophenyl)-N-(4-(((6-cyclopropyl-8-(2-oxo-3-azabicyclo[3.1.0]hexan-3-yl)imidazo[1,2-a]pyridin-2-yl)methyl)amino)pyridin-2-yl)cyclopropane-1-carboxamide]	< 1 nM	1500 to 10000 nM
